Measurements as given in patent publication US20080096853A1, “Edible Compositions Comprising A Primary Lipid, A Co-Lipid, A Lipohilic Physiologically Active Ingredient And Water, And Their Preparation” (priority 2004, published 2008).

Legend:
Type in all cases: physicochemical
[1] = USP24 dissolution test type II: solubility of β-carotene in bile extract solution; conditions: 900 ml bile extract solution in aqueous buffer, 37° C., stirring in USP24 for 60 min
Experimental: 6 mg of β-carotene and 2 g of lactic fatty acid ester+glycerol/propylene glycol reaction product (LFEGPG) were dissolved at 55° C. in 10 ml of ethanol. This solution was added dropwise to 200 ml of intensely agitated Tris buffer ([…]). After 15 minutes of stirring, the solution was cooled down and the pH adjusted to 4.0 with 1M HCl. The precipitate was then filtrated and LFEGPG lipid phase containing molecularly-dispersed β-carotene was used further in this experiment.
The precipitate was added to the USP24 vessel (dissolution test type II) loaded with 900 ml of bile extract solution in aqueous buffer at 37° C. As a control, 6 mg of free crystalline β-carotene was added to the same buffered bile solution in USP24.

[2] = Incorporation of β-carotene into LFEGPG in model systems (UV-Vis after centrifugation and hexane extraction)
Experimental: • (1) A. 1 g LFEGPG and 2.4 mg pure β-carotene were added to 100 ml water, followed by magnet stirring for 1 h at 50° C. 1.7 mg β-carotene/g dry LFEGPG were detected by UV-Vis spectrophotometry after centrifugation and extraction of β-carotene from the collected lipid phase by hexane. • B. 1 g LFEGPG and 2.4 mg pure β-carotene were melted together and added dropwise to 100 ml water, followed by magnet stirring for 20 min at 50° C. Ultra Turrax was applied to homogenize the sample, then the sample was magnet stirred for another 10 min at 50° C. […] Polymorphic or mesomorphic lipid phases containing molecularly dispersed β-carotene were derived (judged from appearance under microscope, however also a few free β-carotene crystals were detected, thus not completely molecularly dispersed). • (4) As the solubility of β-carotene in ethanol is limited, complete molecular dispersion of β-carotene was achieved by the use of non food-grade solvents such as chloroform. […] The lipid phase was investigated under the optical light microscope, and no β-carotene crystals could be detected. • (5) 0.2 g of LFEGPG and 2 mg β-carotene as well as 0.2 g a LFEGPG/Datem (diacetyl tartaric acid esters of mono- and diglycerides) mixture (93/7, by wt) and 2 mg β-carotene were dissolved in chloroform. […]

[3] = In situ incorporation of carotenoids from carrot juice into LFEGPG (absorbance at 448 nm); conditions: Silverson
Experimental: • 1) 1 g solid LFEGPG was added to 100 ml cold carrot juice (97% pure fresh carrot juice, Zonnatura B.V Zoetermeer, Netherlands). The mixture was warmed up to 50° C. and kept at this temperature for 30 min with magnetic stirring. Homogenization was performed with a Silverson homogenizer at ˜5500 rpm followed by another hydration step for 5 min at 50° C. • The LFEGPG phase was filtrated, collected and dissolved in hexane. The β-carotene content was determined spectrophotometrically (absorbance at 448 nm) to be 0.68 mg β-carotene/g dry lipid phase (corrected for a water content of the hydrated LFEGPG phase of 30%). • (2) 2 g LFEGPG were melted at 50° C. and added dropwise to 100 ml carrot juice kept at 50° C. Magnet stirring was performed for 1 hour at 50° C., then the solution was homogenized with a Silverson homogenizer (4500 rpm for 1 minute) and magnet stirred at 50° C. for another 1 hour. The LFEGPG phase was collected by filtration and dissolved in hexane. The β-carotene content was spectrophotometrically determined (absorbance at 448 nm) to be 1.5 mg β-carotene/g dry LFEGPG. […] Magnet stirring was performed for 20 min at 50° C., Silverson (4500 rpm, 1 min.), and magnet stirred at 50° C. for another 10 min at 50° C. The LFEGPG phase was collected by filtration and dissolved in hexane. The β-carotene content was spectrophotometrically determined (absorbance at 448 nm) to be 2.0 mg β-carotene/g dry LFEGPG.

CC1=C(/C=C/C(C)=C/C=C/C(C)=C/C=C/C=C(C)/C=C/C=C(C)/C=C/C2=C(C)CCCC2(C)C)C(C)(C)CCC1 [β-carotene]
solubility of β-carotene in the bile solution, from the initial amount (6 mg) [1]: ~0%
β-carotene detected in collected lipid phase ([2]; Example 6 (1) A: 1 g LFEGPG and 2.4 mg β-carotene added to 100 ml water, stirred 1 h at 50° C.): 1.7 mg β-carotene/g dry LFEGPG
β-carotene recovered ([2]; Example 6 (1) B: 1 g LFEGPG and 2.4 mg β-carotene melted together, added dropwise to 100 ml water, Ultra Turrax): 2.2 mg
β-carotene content of LFEGPG phase ([3]; Example 7 (1): 1 g solid LFEGPG in 100 ml cold carrot juice, 50° C. 30 min, corrected for 30% water content): 0.68 mg β-carotene/g dry lipid phase
β-carotene content of LFEGPG phase ([3]; Example 7 (2): 2 g molten LFEGPG in 100 ml carrot juice, 1 hour stirring, another 1 hour, 50° C.): 1.5 mg β-carotene/g dry LFEGPG
β-carotene content of LFEGPG phase ([3]; Example 7 (3): 1 g molten LFEGPG in 100 ml carrot juice, 20 min stirring, another 10 min, 50° C.): 2.0 mg β-carotene/g dry LFEGPG
